Test system: SK-ES-1 cells
Assay: Ewing's sarcoma-derived cell line growth assay, combination with rapamycin
Format: cell-based
Conditions: Homo sapiens, SK-ES1, 100 nM (each agent), FIG. 8, read-out: proliferation inhibition
Description: The typical concentrations used are 30, 10, 3.3, 1.1, 0.37, and 0.12 μg/ml (or 100, 10, 1, 0.1, 0.01, 0.001 nM rapamycin and test antibody for combination studies) and each dilution is performed in triplicate wells. The cells plus antibody are then incubated for 120 hours after which time the relative cell number in each well is determined using the CellTiter-Glo luminescent cell viability assay (Promega). Luminescence (LU=Luminescence Units) is recorded using a XFluor GENios Pro 4 and for data analysis the mean value from triplicate wells is taken and fitted by iterative calculations using a sigmoidal curve analysis program (Graph Pad Prism) with variable Hill slope.

`CO[C@H]1C[C@@H]2CC[C@@H](C)[C@@](O)(O2)C(=O)C(=O)N2CCCC[C@H]2C(=O)O[C@H]([C@H](C)C[C@@H]2CC[C@@H](O)[C@H](OC)C2)CC(=O)[C@H](C)/C=C(\C)[C@@H](O)[C@@H](OC)C(=O)[C@H](C)C[C@H](C)/C=C/C=C/C=C/1C` [rapamycin, reference compound] was tested, and the inhibition at 0.1 µM was roughly 60%.
